Values quoted from earlier work in US20190105343A1, “Treatment of Skin Conditions and Diseases Associated with Microbial Biofilms” (Bioclenz PH LLC, priority 2016, published 2019).
Converted amounts (≈) assume the structure as drawn.

Key:
[1] = aqueous solutions at 37° C.
Pseudomonas aeruginosa = details: pH 5.0-6.0
[2] = system: aerobic and anaerobic gram-positive bacteria; details: broth and biofilm cultures

In the case of CCCCCCCCCCCC(=O)OCC(O)CO (stereo not shown) [GML, glycerol monolaurate], the solubility limit [1] is listed as 100 µg/mL (≈ 364 µM), the killing (Pseudomonas aeruginosa) is listed as “killed” and the bactericidal activity [2] is listed as “bactericidal”. For the same compound, the susceptibility (Gram-negative anaerobes) was “susceptible”.
